Reference: PMC9105583, “Stereoselective Synthesis and Anticancer Activity of 2,6-Disubstituted trans-3-Methylidenetetrahydropyran-4-ones” (Materials, 2022)

Tests used:
[1] = target: T1, human topoisomerase IIα (Homo sapiens, UniProt P11388); assay: Human Topoisomerase II Decatenation Assay (kDNA); format: biochemical; conditions: for inhibition of topoisomerase II activity: 0.5 mM and 1 mM concentrations, 30 min at 37 °C
T1 construct: purchased Inspiralis, Norwich, UK
Description: Topoisomerase IIα activity
Topoisomerase IIα activity inhibition was assessed using the Human Topoisomerase II Decatenation Assay (Inspiralis, Norwich, UK). Briefly, kDNA was incubated with ATP, assay buffer (50 mM Tris-HCl pH 7.5, 125 mM NaCl, 10 mM MgCl2, 5 mM DTT, 100 µg/mL albumin), human topoisomerase II enzyme and various concentrations of the investigated compounds for 30 min at 37 °C. The reaction was stopped by addition of STEB (40% (w/v) sucrose, 100 mM Tris-HCl pH 8, 1 mM EDTA, 0.5 mg/mL bromophenol blue) followed by DNA extraction with chloroform/iso-amyl alcohol mixture (24:1). The samples were loaded onto a 1% agarose gel and run in a TBE buffer at 85 V for 65 min. Gels were stained with ethidium bromide (1 µg/mL) for 15 min, destained in water and visualized with a transilluminator (ChemiDoc MP Imaging System, Bio-Rad, Hercules, CA, USA).
The ability of the analogs to inhibit topoisomerase II activity was investigated by measuring decatenation of kinetoplast DNA (kDNA) by human topoisomerase IIα. Topoisomerase II has the ability to decatenate interlinked dsDNA minicircles.

[2] = tested on: HL-60 cells; assay: Cell morphology by light microscope; format: cell-based, human; conditions: IC50 and 2IC50, 24 h
Description: HL-60 cells were treated with compound 13d or 13g at IC50 and 2IC50 for 24 h. Then, the cells were examined for morphological changes using a light microscope at 40x magnification and photographed.
HL-60 cells grow in suspension and usually have a roughly spherical shape.

[3] = tested on: HL-60 cells; assay: Annexin V / propidium iodide apoptosis assay, flow cytometry; format: cell-based, human; conditions: for early apoptotic cells (Annexin V-positive and PI-negative) / late apoptotic cells (Annexin V-positive and PI-positive): compound at 2IC50, 24 h; for early apoptotic cells (Annexin V-positive and PI-negative): control 3.3 ± 0.36%; for late apoptotic cells (Annexin V-positive and PI-positive): control 5.5 ± 1.02%; for change in the number of apoptotic cells: compound at IC50, 24 h
Description: Apoptotic cells were detected using FITC Annexin V Apoptosis Detection Kit I (BD Biosciences, San Jose, CA, USA). HL-60 cells (2.0 × 10^5 cells/mL) seeded in 6-well plates and cultured overnight were treated with various concentrations of 13d or 13g for 24 h. Then, the cells were washed with PBS and resuspended in the binding buffer. After staining with FITC Annexin V and propidium iodide (15 min, room temperature) cells were analyzed by flow cytometry using CytoFlex and Kaluza Analysis Software v2 (Beckman Coulter Inc., Brea, CA, USA).
One of the typical features of apoptotic cell death is translocation of phosphatidylserine from the inside surface to the extracellular surface of the cell membrane, which can be detected with Annexin V [27]. Therefore, to examine the ability of the investigated compounds to induce apoptosis in HL-60 cells, we performed Annexin V and propidium iodide (PI) staining (Figure 5C and Figure 6C). In the control group, 90.3 ± 1.15% of HL-60 cells were healthy, 3.3 ± 0.36% were in early stage of apoptosis (Annexin V-positive and PI-negative) and 5.5 ± 1.02% were in late-stage apoptosis (Annaxin V-positive and PI-positive).

[4] = tested on: HL-60 cells; assay: BrdU incorporation (proliferation), flow cytometry; format: cell-based, human; conditions: 24 h, then BrdU 8 h
Description: (§1) Analysis of apoptosis, DNA damage and cell cycle
(§2) Apoptosis, DNA damage, proliferation and cell cycle kinetics were investigated using the Apoptosis, DNA Damage and Cell Proliferation Kit (BD Biosciences, San Jose, CA, USA) according to the manufacturer’s protocol. Briefly, HL-60 cells (2.0 × 10^5 cells/mL) were seeded in 6-well plates and left to grow for 24 h. Then, the cells were treated with 13d or 13g at IC50 and 2IC50 concentrations. After 24 h incubation, the cells were treated with BrdU solution for 8 h. Then, the cells were collected by centrifugation, fixed and permeabilized. To expose the incorporated BrdU, the cells were incubated with DNase (300 µg/mL in PBS) for 1 h at 37 °C. Afterwards, the cells were stained with fluorescent antibodies, including Anti-BrdU, Anti-Cleaved PARP (Asp214) and Anti-H2AX (pS139) for 20 min at room temperature. Total DNA for cell cycle analysis was stained using DAPI solution (1 µg/mL in staining buffer). Finally, the cells were analyzed by flow cytometry using CytoFLEX (Beckman Coulter, Inc., Brea, CA, USA) and the data analysis was performed with Kaluza Analysis Software v2 (Beckam Coulter, Inc., Brea, CA. USA).
To examine the influences of the investigated compounds on HL-60 cell proliferation, cells were exposed to a thymidine analog, bromodeoxyuridine (BrdU), that incorporates into newly synthesized DNA during proliferation.

[5] = tested on: HL-60 cells; assay: Cell cycle distribution, DAPI DNA staining and flow cytometry; format: cell-based, human; conditions: 24 h
Description: as §1, §2
The cell cycle has a critical role in regulation of cell growth, proliferation and division of cells after DNA damage. Therefore, it often serves as a target in cancer therapy development. The cell cycle distribution was investigated using DAPI DNA staining and flow cytometry analysis.

[6] = tested on: HUVEC cells; assay: MTT assay, metabolic activity (cytotoxicity), normal cell line; format: cell-based, human; conditions: Homo sapiens, HUVEC, 48 h incubation, mean ± SEM
Description: Metabolic activity by MTT assay
The MTT (3-([…])-2,5-diphenyl tetrazolium bromide) assay was performed to assess the cytotoxicity of the investigated compounds. Briefly, HL-60, MCF-7 and HUVEC cells were seeded in 24-well plates at density of 8 × 10^4/mL. After 24 h incubation, cells were treated with various concentrations of the compounds and incubated for another 24 h or 48 h. Then, the cells were incubated with MTT solution (100 µL; 5 mg/mL in PBS) for 1.5 h and centrifuged. The formazan product was dissolved in DMSO, and the absorption was measured using FlexStation 3 Multi-Mode Microplate Reader (Molecular Devices, LLC, San Jose, CA, USA) at 560 nm. Assays were performed twice in triplicate for each analog.
The cytotoxic activity of the obtained methylidenetetrahydropyran-4-ones was investigated in two cancer cell lines, human promyelocytic leukemia (HL-60) and breast cancer adenocarcinoma (MCF-7), and in healthy umbilical vein endothelial cells (HUVEC), for comparison. An anticancer drug, carboplatin, was used as a reference compound. Metabolic activity of the cells was assessed after 48 h incubation with various concentrations of the analogs (Table 6). Purity of all final compounds was determined on the basis of their ^1H NMR spectra (signal-to-noise ratio and presence of unidentified signals) and was at least 98%, in most cases even over 99%.

[7] = compound at 2IC50 concentration

T1 sequence (P11388 whole entry): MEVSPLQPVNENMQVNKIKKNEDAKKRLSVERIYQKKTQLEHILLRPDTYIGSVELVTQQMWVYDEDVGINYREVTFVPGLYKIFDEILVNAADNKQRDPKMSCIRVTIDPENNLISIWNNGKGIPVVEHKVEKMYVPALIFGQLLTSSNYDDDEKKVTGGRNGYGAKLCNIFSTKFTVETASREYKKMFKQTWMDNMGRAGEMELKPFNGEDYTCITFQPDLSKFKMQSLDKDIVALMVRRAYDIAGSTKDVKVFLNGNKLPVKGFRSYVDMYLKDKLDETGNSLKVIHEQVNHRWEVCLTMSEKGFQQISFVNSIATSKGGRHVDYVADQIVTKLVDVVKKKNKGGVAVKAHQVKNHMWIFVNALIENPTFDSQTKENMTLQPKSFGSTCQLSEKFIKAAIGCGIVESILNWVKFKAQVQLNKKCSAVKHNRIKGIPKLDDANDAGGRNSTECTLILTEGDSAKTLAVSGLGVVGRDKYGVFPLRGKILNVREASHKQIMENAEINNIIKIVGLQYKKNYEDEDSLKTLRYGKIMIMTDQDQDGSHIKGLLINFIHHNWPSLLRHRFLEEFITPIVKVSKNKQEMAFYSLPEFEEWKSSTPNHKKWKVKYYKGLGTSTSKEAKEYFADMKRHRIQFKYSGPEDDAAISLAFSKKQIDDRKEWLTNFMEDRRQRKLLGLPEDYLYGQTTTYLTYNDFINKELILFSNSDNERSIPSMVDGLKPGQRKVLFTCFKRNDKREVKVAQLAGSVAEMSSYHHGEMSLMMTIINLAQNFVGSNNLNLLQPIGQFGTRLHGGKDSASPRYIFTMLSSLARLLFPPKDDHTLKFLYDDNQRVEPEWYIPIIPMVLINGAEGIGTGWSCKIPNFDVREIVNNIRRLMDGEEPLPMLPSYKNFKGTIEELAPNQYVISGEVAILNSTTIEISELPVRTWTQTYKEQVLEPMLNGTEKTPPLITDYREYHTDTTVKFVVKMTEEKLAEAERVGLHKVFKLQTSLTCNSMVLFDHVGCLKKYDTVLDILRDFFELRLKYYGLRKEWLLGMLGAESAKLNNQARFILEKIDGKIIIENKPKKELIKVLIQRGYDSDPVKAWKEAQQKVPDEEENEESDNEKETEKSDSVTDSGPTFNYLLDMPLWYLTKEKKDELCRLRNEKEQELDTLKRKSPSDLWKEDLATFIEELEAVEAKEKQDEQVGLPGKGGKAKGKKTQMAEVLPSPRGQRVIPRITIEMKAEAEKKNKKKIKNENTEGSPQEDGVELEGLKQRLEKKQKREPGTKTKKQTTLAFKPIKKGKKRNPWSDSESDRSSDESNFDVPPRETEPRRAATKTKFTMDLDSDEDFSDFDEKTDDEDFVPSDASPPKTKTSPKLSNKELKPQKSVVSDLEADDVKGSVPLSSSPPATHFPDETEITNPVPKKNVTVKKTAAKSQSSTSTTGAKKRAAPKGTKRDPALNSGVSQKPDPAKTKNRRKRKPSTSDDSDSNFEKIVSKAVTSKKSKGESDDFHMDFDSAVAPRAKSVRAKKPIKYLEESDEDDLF

Compound	inhibition of topoisomerase II activity [1]	morphological changes of the cells [2]	early apoptotic cells (Annexin V-positive and PI-negative) [3]	late apoptotic cells (Annexin V-positive and PI-positive) [3]	change in the number of apoptotic cells [3]	BrdU-incorporating cell population [4, 7]	BrdU-incorporating cell population ([4]; compound at IC50 concentration)	population of cells in G0/G1 phase [5, 7]	cells in the G2/M phase ([5]; compound at 2IC50 concentration, control 14.9 ± 1.37%)	IC50 [6]	inhibitory activity towards topoisomerase IIα compared with 13d ([1]; 0.5 and 1 mM)	change of G2/M cell population ([5]; not statistically significant)
C=C1C(=O)C[C@H](C(C)C)O[C@H]1C(C)C (relative stereo) [Analog 13d, Trans-2,6-diisopropyl-3-methylidenetetrahydro-4H-pyran-4-one]	inhibited topoisomerase II activity	induced several morphological changes	13.0 ± 2.64%	24.6 ± 2.34%	did not induce a significant change	26.4 ± 6.9%	31.5 ± 1.65%	diminished	24.1 ± 1.40%	24.7 ± 0.65 µM		
C=C1C(=O)C[C@H](c2ccccc2)O[C@H]1C(C)C (relative stereo) [Analog 13g, Trans-2-isopropyl-3-methylidene-6-phenyltetrahydro-4H-pyran-4-one]	inhibited topoisomerase II activity	induced several morphological changes	8.7 ± 0.57%	39.5 ± 1.16%	not effective	31.9 ± 6.02%	35.3 ± 1.23%			3.84 ± 0.01 µM	stronger inhibitory activity	slight increase
